Data on 13 compounds can be found in US20090192147A1, “[a]-FUSED INDOLE COMPOUNDS, THEIR USE AS mTOR KINASE AND PI3 KINASE INHIBITORS, AND THEIR [sequence]” (Wyeth, priority 2008, published 2009).

Where two headings read alike, the source gives them in different places.

Assay [1] relates to PC3-MM2 cells. The assay can be described thus: In vitro cell culture growth assay (MTS). The assay is classed as cell-based. The settings on record: Homo sapiens, PC3MM2, 72 h, growth inhibition, three days after drug treatment. The protocol:
(§1) Cell lines used were human adenocarcinoma (LoVo), pancreatic […], prostate (LNCap), breast (MDA468, MCF7), colon (HCT116), renal (HTB44 A498), and ovarian (OVCAR3) tumor cell lines. The tumor cells were plated in 96-well culture plates at approximately 3000 cells per well. One day following plating, various concentrations of PI3K inhibitors in DMSO were added to cells (final DMSO concentration in cell assays was 0.25%). Three days after drug treatment, viable cell densities were determined by cell mediated metabolic conversion of the dye MTS, a well-established indicator of cell proliferation in vitro. Cell growth assays were performed using kits purchased from Promega Corporation (Madison, Wis.), following the protocol provided by the vendor. Measuring absorbance at 490 nm generated the MTS assay results. Compound effect on cell proliferation was assessed relative to untreated control cell growth.

The target of assay [2] is PI3K-gamma (Homo sapiens, UniProt P48736). The assay can be described thus: Fluorescence polarization assay for PI3K. The class given is biochemical. Particulars: 25 μM ATP, diC8-PI(4,5)P2 substrate; read-out: PI3 Kinase γ IC50. The protocol:
(§2) Fluorescence Polarization Assay for PI3K
(§3) Reaction Buffer: 20 mM HEPES, pH 7.5, 2 mM MgCl2, 0.05% CHAPS; and 0.01% BME (added fresh) Stop/Detection Buffer: 100 mM HEPES, pH 7.5, 4 mM EDTA, 0.05% CHAPS; ATP 20 mM in water; PIP2 (diC8, Echelon, Salt Lake City Utah, cat# P-4508) 1 mM in water (MW=856.5); GST-GRP 1.75 mg/mL or 1.4 mg/mL in 10% glycerol; Red detector (TAMRA) 2.5 μM; Plate: Nunc 384 well black polypropylene fluorescence plate.
(§4) PI3-Kinase reactions were performed in […], pH 7, […], and 25 μM ATP, with diC8-PI(4,5)P2 (Echelon, Salt Lake City Utah) as substrate. Nunc 384 well black polypropylene fluorescent plates were used for PI3K assays. Reactions were quenched by the addition of EDTA to a final concentration of […]. Final reaction volumes were 10 μl. For evaluation of PI3K inhibitors, 5 ng of enzyme (PI3K-alpha, beta, gamma, or delta) and 2.5 μM of substrate was used per […] reaction volume, and inhibitor concentrations ranged from 100 pM to 20 μM; the final level of DMSO in reactions never exceeded 2%. Reactions were allowed to proceed for one hour at 25° C. After 1 hour, GST-tagged GRP1 (general receptor for phosphoinositides) PH domain fusion protein was added to a final concentration of 100 nM, and BODIPY-TMRI(1,3,4,5)P4 (Echelon) was also added to a final concentration of 5 nM. Final sample volumes were 25 μl with a final DMSO concentration of 0.8%. Assay Plates were read on PerkinElmer Envision plate readers with appropriate filters for Tamra [BODIPY-TMRI(1,3,4,5)P4]. Data obtained were used to calculate enzymatic activity and enzyme inhibition by inhibitor compounds.
On the technique in general: Polarisation of emitted light reports the rotation of a fluorescent probe.

Assay [3] deals with PI3K-alpha (Homo sapiens, UniProt P42336). The assay can be described thus: Fluorescence polarization assay for PI3K. The class given is biochemical. The settings on record: 25 μM ATP, diC8-PI(4,5)P2 substrate; read-out: PI3 Kinase α IC50. The procedure: as §2, §3, §4
Chain of PI3K-alpha (P42336 whole entry, species assumed): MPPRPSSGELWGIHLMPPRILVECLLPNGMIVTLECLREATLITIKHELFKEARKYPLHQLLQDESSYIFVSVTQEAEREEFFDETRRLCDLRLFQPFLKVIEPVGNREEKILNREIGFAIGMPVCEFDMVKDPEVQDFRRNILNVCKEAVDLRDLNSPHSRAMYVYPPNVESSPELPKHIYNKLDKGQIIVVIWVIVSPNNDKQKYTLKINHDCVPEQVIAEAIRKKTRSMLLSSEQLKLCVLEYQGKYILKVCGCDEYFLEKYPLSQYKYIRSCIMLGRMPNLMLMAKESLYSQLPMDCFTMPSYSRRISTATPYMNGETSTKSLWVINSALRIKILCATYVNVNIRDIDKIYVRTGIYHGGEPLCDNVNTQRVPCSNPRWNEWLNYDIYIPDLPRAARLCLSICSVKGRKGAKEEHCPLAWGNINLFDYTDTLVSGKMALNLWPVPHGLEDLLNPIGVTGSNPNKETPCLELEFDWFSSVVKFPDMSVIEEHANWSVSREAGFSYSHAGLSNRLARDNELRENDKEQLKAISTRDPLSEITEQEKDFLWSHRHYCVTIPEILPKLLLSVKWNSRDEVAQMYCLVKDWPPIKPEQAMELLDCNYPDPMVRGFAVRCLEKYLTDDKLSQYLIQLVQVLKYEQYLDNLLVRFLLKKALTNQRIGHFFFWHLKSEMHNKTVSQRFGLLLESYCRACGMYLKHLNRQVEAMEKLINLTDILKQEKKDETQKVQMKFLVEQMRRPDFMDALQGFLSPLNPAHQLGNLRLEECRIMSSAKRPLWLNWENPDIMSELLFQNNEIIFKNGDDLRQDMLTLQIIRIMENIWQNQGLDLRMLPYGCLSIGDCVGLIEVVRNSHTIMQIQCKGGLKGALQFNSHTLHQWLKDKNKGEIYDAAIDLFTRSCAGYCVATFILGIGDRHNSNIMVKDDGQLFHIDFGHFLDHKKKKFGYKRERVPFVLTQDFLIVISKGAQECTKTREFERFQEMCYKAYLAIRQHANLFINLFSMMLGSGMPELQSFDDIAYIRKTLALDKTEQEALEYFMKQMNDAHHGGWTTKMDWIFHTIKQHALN
Chain of PI3K-alpha (P27986 whole entry partner, species assumed): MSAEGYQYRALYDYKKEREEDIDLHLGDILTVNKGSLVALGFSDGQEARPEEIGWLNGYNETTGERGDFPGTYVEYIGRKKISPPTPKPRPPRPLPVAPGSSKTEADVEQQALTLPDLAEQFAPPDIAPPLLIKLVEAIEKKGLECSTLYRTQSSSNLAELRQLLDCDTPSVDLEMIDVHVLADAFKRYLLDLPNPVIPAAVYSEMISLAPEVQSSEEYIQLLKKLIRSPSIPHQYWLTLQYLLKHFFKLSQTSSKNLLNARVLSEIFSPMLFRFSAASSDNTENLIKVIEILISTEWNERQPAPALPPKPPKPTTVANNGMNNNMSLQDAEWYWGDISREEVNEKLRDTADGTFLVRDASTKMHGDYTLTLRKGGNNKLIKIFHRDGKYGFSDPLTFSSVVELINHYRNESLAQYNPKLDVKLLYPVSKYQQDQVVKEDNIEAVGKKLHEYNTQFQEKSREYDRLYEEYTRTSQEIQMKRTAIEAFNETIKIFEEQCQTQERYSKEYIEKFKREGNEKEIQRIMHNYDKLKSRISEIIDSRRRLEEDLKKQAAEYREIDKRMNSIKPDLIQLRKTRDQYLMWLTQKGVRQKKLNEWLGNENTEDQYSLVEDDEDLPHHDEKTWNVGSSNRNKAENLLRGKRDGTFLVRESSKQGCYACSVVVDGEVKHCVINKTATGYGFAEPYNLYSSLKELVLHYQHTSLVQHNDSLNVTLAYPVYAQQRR
Assay [4] concerns the target T1, human TOR (FLAG-TOR) (Homo sapiens, UniProt P42345).
T1 construct: FLAG
The assay can be described thus: mTOR kinase assay, purified enzyme, DELFIA format. The assay is classed as biochemical. The settings on record: 100 μM ATP, His6-S6K substrate.

The subject of assay [5] is human tumor xenograft models. The settings on record: cited from earlier work.
In assay [6] the test system is OVCAR3 ovarian tumor cell line. Kind of assay: In vitro cell culture growth assay (MTS). The class given is cell-based. Particulars: Homo sapiens, OVCAR-3, 72 h, growth inhibition, three days after drug treatment. The procedure: as §1
Assay [7] has as its system acute lymphoblastic leukemia. The settings on record: NOS/SCID mouse; cited from earlier work.
Assay [8] has as its target mTOR enzymes (Homo sapiens, UniProt P42345). Particulars: read-out: mTOR enzymes IC50; literature value; cited from earlier work.

Chain of PI3K-gamma (P48736 whole entry): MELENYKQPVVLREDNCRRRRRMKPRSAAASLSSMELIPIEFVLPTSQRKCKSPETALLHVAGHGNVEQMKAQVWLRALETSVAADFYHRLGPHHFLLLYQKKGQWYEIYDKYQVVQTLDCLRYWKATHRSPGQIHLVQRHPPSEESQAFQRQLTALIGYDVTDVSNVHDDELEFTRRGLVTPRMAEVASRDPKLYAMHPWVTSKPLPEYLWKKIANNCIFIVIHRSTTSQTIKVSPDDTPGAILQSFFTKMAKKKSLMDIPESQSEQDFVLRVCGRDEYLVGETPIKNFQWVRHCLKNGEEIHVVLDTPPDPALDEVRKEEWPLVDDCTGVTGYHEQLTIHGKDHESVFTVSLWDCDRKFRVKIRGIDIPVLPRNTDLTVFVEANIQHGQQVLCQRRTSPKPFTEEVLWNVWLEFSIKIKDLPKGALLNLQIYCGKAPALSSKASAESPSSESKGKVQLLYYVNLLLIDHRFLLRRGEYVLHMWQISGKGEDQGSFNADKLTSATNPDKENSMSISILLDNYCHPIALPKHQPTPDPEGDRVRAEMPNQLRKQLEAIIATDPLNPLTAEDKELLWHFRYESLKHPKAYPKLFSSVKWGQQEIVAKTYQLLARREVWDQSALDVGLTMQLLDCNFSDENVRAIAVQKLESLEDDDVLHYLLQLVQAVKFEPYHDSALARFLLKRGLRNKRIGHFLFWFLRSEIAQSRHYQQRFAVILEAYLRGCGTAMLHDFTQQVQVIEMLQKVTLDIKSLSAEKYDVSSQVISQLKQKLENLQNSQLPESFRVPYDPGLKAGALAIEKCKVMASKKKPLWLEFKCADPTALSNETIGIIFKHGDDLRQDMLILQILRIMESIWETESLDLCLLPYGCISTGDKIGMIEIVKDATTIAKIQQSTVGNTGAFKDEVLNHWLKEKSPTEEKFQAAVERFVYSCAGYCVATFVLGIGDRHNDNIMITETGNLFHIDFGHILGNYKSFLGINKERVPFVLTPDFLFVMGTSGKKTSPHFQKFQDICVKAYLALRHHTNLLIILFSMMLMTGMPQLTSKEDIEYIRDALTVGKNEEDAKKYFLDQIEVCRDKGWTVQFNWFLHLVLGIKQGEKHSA

As a reminder, the IC50 is the concentration needed to halve the response being measured. For `COc1ccc2c(c1)c(/C=C1\Oc3cc(O)cc(O)c3C1=O)c1n2CCOC1=O` [Example I, 10-[(Z)-(4,6-dihydroxy-3-oxo-1-benzofuran-2(3H)-ylidene)methyl]-8-methoxy-3,4-dihydro-1H-[1,4]oxazino[4,3-a]indol-1-one], the IC50 in assay [1] worked out at 5630 nM; in assay [2] it was 9 nM; in assay [3], 1.1 nM; in assay [4], 24 nM.
For the compound `Oc1cccc(-c2nc(N3CCOCC3)c3oc4ncccc4c3n2)c1` [Example P1103, 3-(4-(4-morpholinyl)pyrido[3′,2′:4,5]furo[3,2-d]pyrimidin-2-yl)phenol], the “activity in human tumor xenograft models” value in assay [5] (I.P. dosing in mice, U87MG, PC3, MDA-MB-468, MDA-MB-435, HCT 116, SKOV3, IGROV-1) is on record as “demonstrated activity”.
For the compound `COc1ccc2c(c1)c(/C=C1\Oc3cc(O)ccc3C1=O)c1n2CCOC1=O` [J, 10-[(Z)-(6-hydroxy-3-oxo-1-benzofuran-2(3H)-ylidene)methyl]-8-methoxy-3,4-dihydro-1H-[1,4]oxazino[4,3-a]indol-1-one], the IC50 in assay [1] is greater than 10000 nM; in assay [6], 5280 nM; in assay [2], 76.5 nM; in assay [3] it was 21.5 nM; in assay [4] it was 114 nM.
Turning to `COc1ccc2c(c1)c(/C=C1\Oc3cc(O)cc(O)c3C1=O)c1n2CCNC1` [K, (2Z)-4,6-dihydroxy-2-[(8-methoxy-1,2,3,4-tetrahydropyrazino[1,2-a]indol-10-yl)methylene]-1-benzofuran-3(2H)-one], the concentration for half-maximal inhibition (IC50) in assay [1] was 2190 nM; in assay [6], 1620 nM; in assay [2], 116 nM; in assay [3], 5.5 nM; in assay [4], 9 nM.
Regarding `COc1ccc2c(c1)c(/C=C1\Oc3cc(O)ccc3C1=O)c1n2CCNC1` [L, (2Z)-6-hydroxy-2-[(8-methoxy-1,2,3,4-tetrahydropyrazino[1,2-a]indol-10-yl)methylene]-1-benzofuran-3(2H)-one], the half-maximal inhibitory concentration (IC50) in assay [1] was 1510 nM; in assay [6], 780 nM; in assay [2], 116 nM; in assay [3] it was 16.5 nM; in assay [4] it was 320 nM.
Consider `COc1ccc2c(c1)c(/C=C1\Oc3cc(O)cc(O)c3C1=O)c1n2CCOC1` [M, (2Z)-4,6-dihydroxy-2-[(8-methoxy-3,4-dihydro-1H-[1,4]oxazino[4,3-a]indol-10-yl)methylene]-1-benzofuran-3(2H)-one], for which the half-inhibitory concentration (IC50) in assay [1] was 1910 nM; in assay [6] it was 1000 nM; in assay [2] it was 57 nM; in assay [3], 4.5 nM; in assay [4], less than 32 nM.
`COc1ccc2c(c1)c(/C=C1\Oc3cc(O)cc(O)c3C1=O)c1n2CCNC1=O` [N, 10-[(Z)-(4,6-dihydroxy-3-oxo-1-benzofuran-2(3H)-ylidene)methyl]-8-methoxy-3,4-dihydropyrazino[1,2-a]indol-1(2H)-one]: the concentration for half-maximal inhibition (IC50) in assay [1] was greater than 10000 nM; in assay [6], 4950 nM; in assay [2], 24.5 nM; in assay [3] it was 2.5 nM; in assay [4] it was less than 32 nM.
Regarding `Cn1c(=O)n(-c2ccc(C(C)(C)C#N)cc2)c2c3cc(-c4cnc5ccccc5c4)ccc3ncc21` [NVP-BEZ-235, 2-methyl-2-(4-(3-methyl-2-oxo-8-(quinolin-3-yl)-2,3-dihydro-1H-imidazo[4,5-c]quinolin-1-yl)phenyl)propanenitrile], the “activity in human tumor xenograft models” value in assay [5] (prostrate (PC-3) and glioblastoma (U-87)) is listed as “demonstrated activity”.
Regarding `COc1ccc2c(c1)c(/C=C1\Oc3cc(O)ccc3C1=O)c1n2CCC1` [O, (2Z)-6-hydroxy-2-[(7-methoxy-2,3-dihydro-1H-pyrrolo[1,2-a]indol-9-yl)methylene]-1-benzofuran-3(2H)-one], the IC50 in assay [1] is 3400 nM; in assay [6] it was 3720 nM; in assay [2] it was 76 nM; in assay [3], 14 nM; in assay [4], 66 nM.
As to `COc1ccc2c(c1)c(/C=C1\Oc3cc(O)cc(O)c3C1=O)c1n2CCN(C)C1` [P, (2Z)-4,6-dihydroxy-2-[(8-methoxy-2-methyl-1,2,3,4-tetrahydropyrazino[1,2-a]indol-10-yl)methylene]-1-benzofuran-3(2H)-one], the IC50 in assay [1] was found to be 1610 nM; in assay [6], 1670 nM; in assay [2] it was 30.5 nM; in assay [3] it was 6 nM; in assay [4] it was 9 nM.
Regarding `COc1ccc2c(c1)c(/C=C1\Oc3cc(O)cc(O)c3C1=O)c1n2CCN(C)C1=O` [Q, 10-[(Z)-(4,6-dihydroxy-3-oxo-1-benzofuran-2(3H)-ylidene)methyl]-8-methoxy-2-methyl-3,4-dihydropyrazino[1,2-a]indol-1(2H)-one], the 50% inhibitory concentration (IC50) turned out to be 5050 nM in assay [1]; 3600 nM in assay [6]; 27 nM in assay [2]; 3 nM in assay [3]; 4 nM in assay [4].
`CO[C@H]1C[C@@H]2CC[C@@H](C)[C@@](O)(O2)C(=O)C(=O)N2CCCC[C@H]2C(=O)O[C@H]([C@H](C)C[C@@H]2CC[C@@H](OC(=O)C(C)(CO)CO)[C@H](OC)C2)CC(=O)[C@H](C)/C=C(\C)[C@@H](O)[C@@H](OC)C(=O)[C@H](C)C[C@H](C)/C=C/C=C/C=C/1C` [Torisel]: in assay [7], the “activity in xenograft mouse model of acute lymphoblastic leukemia” value is on record as “active”.
With `FC(F)c1nc2ccccc2n1-c1nc(N2CCOCC2)nc(N2CCOCC2)n1` [ZSTK474, 2-(2-difluoromethylbenzoimidazol-1-yl)-4,6-dimorpholino-1,3,5-triazine], the “tumor growth in mouse human xenograft cancer models” value in assay [5] (chronic oral administration, 400 mg/kg, A549, PC-3, WiDr) is “completely inhibited growth”. Further, the half-inhibitory concentration (IC50) in assay [8] is greater than 10000 nM.
